Results published in ChEMBL document CHEMBL1149359, “Total synthesis and biological evaluation of ustiloxin natural products and two analogs” (Bioorg Med Chem Lett, 2006).

These compounds were tested on CA46 (assay: Cytotoxicity against human CA46 cell line).
Format: functional, cell-based

Row | Structure (SMILES) | IC50 [nM]
1 | CC[C@H](C)[C@@H]([C@@H](CC(=O)N1CCC[C@H]1[C@H](OC)[C@@H](C)C(=O)N[C@@H](Cc1ccccc1)c1nccs1)OC)N(C)C(=O)[C@@H](NC(=O)[C@H](C(C)C)N(C)C)C(C)C [DOLASTATIN-10] | 30
2 | CC[C@@]1(C)Oc2cc(c([S+]([O-])C[C@@H](O)C[C@H](N)C(=O)O)cc2O)[C@@H](O)[C@H](NC)C(=O)N[C@@H](C(C)C)C(=O)N[C@@H]1C(=O)NCC(=O)O (some centres not stated) [USTILOXIN A] | 2500

What follows are compounds tested against Tubulin (assay: Inhibition of tubulin polymerization).
Format: protein-complex assay, Homo sapiens

Row | Structure (SMILES) | IC50 [nM]
3 | CC[C@@H](C)[C@@H]1NC(=O)[C@@H](NC)[C@H](O)c2ccc(O)c(c2)O[C@](C)(CC)[C@@H](C(=O)NCC(=O)O)NC1=O | 4800
4 | CC[C@@]1(C)Oc2cc(ccc2OC)[C@@H](O)[C@H](NC)C(=O)N[C@@H](C(C)C)C(=O)N[C@@H]1C(=O)NCC(=O)O | > 40000
5 | CC[C@@]1(C)Oc2cc(c([S+]([O-])C[C@@H](O)C[C@H](N)C(=O)O)cc2O)[C@@H](O)[C@H](NC)C(=O)N[C@@H](C(C)C)C(=O)N[C@@H]1C(=O)NCC(=O)O (some centres not stated) [USTILOXIN A] | 1100
6 | CC[C@@]1(C)Oc2cc(ccc2O)[C@@H](O)[C@H](NC)C(=O)N[C@@H](C(C)C)C(=O)N[C@@H]1C(=O)NCC(=O)O [USTILOXIN D] | 1500
7 | CC[C@@]1(C)Oc2cc(ccc2O)[C@@H](O)[C@H](NC)C(=O)N[C@@H](C)C(=O)N[C@@H]1C(=O)NCC(=O)O [USTILOXIN F] | 8200
